In publication PMC6642015 (Cell chemical biology, 2019):
Positions count from the first letter of the chain named.

Key:
Assay in all cases: isothermal titration calorimetry
Format in all cases: binding
[1] = biological target: T1, human CblA (MMAA) (Homo sapiens, UniProt Q8IVH4, G278D); conditions: pH 7.5, 150 mM KCl, 2 mM MgCl2, 20 °C; one-site model
T1 sequence (Q8IVH4 66-418 G278D limits assumed): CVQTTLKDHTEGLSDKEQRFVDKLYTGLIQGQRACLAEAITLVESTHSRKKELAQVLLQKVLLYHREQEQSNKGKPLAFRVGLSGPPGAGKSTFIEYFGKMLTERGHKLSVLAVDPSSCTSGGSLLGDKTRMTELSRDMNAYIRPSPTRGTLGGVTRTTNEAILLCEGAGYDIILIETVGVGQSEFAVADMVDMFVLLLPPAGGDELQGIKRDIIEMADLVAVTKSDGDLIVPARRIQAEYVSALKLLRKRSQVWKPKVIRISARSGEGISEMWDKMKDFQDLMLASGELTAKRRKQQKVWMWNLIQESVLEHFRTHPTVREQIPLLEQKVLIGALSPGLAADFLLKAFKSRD

[2] = biological target: T2, human CblA (MMAA) (Homo sapiens, UniProt Q8IVH4)
T2 sequence (Q8IVH4 66-418 limits assumed): T1 sequence (Q8IVH4 66-418 G278D limits assumed) with D213G

[3] = biological target: T3, human CblA (MMAA) (Homo sapiens, UniProt Q8IVH4, G274S); conditions: pH 7.5, 150 mM KCl, 2 mM MgCl2, 20 °C; one-site model
T3 sequence (Q8IVH4 66-418 G274S limits assumed): T1 sequence (Q8IVH4 66-418 G278D limits assumed) with G209S, D213G

[4] = biological target: T4, human CblA (MMAA) (Homo sapiens, UniProt Q8IVH4, K276E); conditions: pH 7.5, 150 mM KCl, 2 mM MgCl2, 20 °C; one-site model
T4 sequence (Q8IVH4 66-418 K276E limits assumed): T1 sequence (Q8IVH4 66-418 G278D limits assumed) with K211E, D213G

[5] = biological target: T5, human CblA (MMAA) (Homo sapiens, UniProt Q8IVH4, K276A); conditions: pH 7.5, 150 mM KCl, 2 mM MgCl2, 20 °C; one-site model
T5 sequence (Q8IVH4 66-418 K276A limits assumed): T1 sequence (Q8IVH4 66-418 G278D limits assumed) with K211A, D213G

[6] = biological target: T6, human CblA (MMAA) (Homo sapiens, UniProt Q8IVH4, Q273A); conditions: pH 7.5, 150 mM KCl, 2 mM MgCl2, 20 °C; one-site model
T6 sequence (Q8IVH4 66-418 Q273A limits assumed): T1 sequence (Q8IVH4 66-418 G278D limits assumed) with Q208A, D213G

## Nc1nc2c(ncn2[C@@H]2O[C@H](COP(=O)(O)OP(=O)(O)O)[C@@H](O)[C@H]2O)c(=O)[nH]1 [GDP]
[1]
  KD: largely unaffected by switch III mutations (Table S1)
[2]
  Kd: 1100 ± 300 nM
[3]
  KD: largely unaffected by switch III mutations (Table S1)
[4]
  KD: largely unaffected by switch III mutations (Table S1)
[5]
  KD: largely unaffected by switch III mutations (Table S1)
[6]
  KD: largely unaffected by switch III mutations (Table S1)
